Results from PMC11476629, “Exploring a Potential Optimization Route for Peptide Ligands of the Sam Domain from the Lipid Phosphatase Ship2” (International Journal of Molecular Sciences, 2024).
Non-standard residues stand in square brackets, D forms with d. Residues, ends and D or L forms follow the SMILES beside them. βAla = NCCC(=O)O

Assays:
[1] = test system: EphA2 levels in PC-3 cells; assay: Western blot analysis of EphA2 levels; assay type: cell-based; conditions: n = 3
Procedure: The levels of EphA2 were monitored in PC-3 cells through Western blot analysis to evaluate if the binding of the TAT-PSscan255 peptide to Ship2-Sam could avoid the inhibition of EphA2 endocytosis and degradation. For this purpose, PC-3 cells were treated with ephrinA1-Fc (1 µg/mL for 2 h) and TAT-PSscan255 (50 µM for 4 h), both alone and in combination (i.e., pre-treating with TAT-peptide 50 µM for 2 h followed by the addition of ephrinA1-Fc 1 µg/mL for an extra 2 h) (Figure 7b).
PC-3 cells were treated with TAT-PSscan255 (50 μM) for 4 h and ephrinA1-Fc (1 μg/mL) for 2 h, both alone and in combination. […] Lysates were centrifuged at 13,000 rpm for 30 min at 4 °C and the protein concentration in the supernatants was evaluated using the Bradford assay. […] Quantification was achieved through densitometric analysis with the ImageJ software (v.1.54g) (National Institutes of Health, Bethesda, MD, USA, https://imagej.org). Statistical significance regarding the comparison between treated and untreated cells was evaluated with one-way ANOVA using Dunnett’s post-test analysis. Statistical analysis was assessed with the OriginPro software v.2023 (OriginLab Corporation, Northampton, MA, USA).

PC-3 cells = conditions: 4 h, crystal violet
Procedure: (§1) Media and supplements were obtained from Thermo Fisher Scientific (Milan, Italy). PC-3 cells were cultured in the RPMI 1640 medium enriched with 10% fetal bovine serum (FBS) and 2 mM L-glutamine. NHDFs were cultured in the DMEM medium complemented with 2% FBS, 1 μg/mL hydrocortisone, 10 ng/mL human epidermal growth factor, 3 ng/mL basic fibroblast growth factor, and 10 μg/mL heparin. For the cytotoxicity assay 96-well flat-bottom microplates were used and 4 × 10^3 cancer cells and 5 × 10^3 NHDF cells were seeded in 50 μL of medium per well and incubated overnight to permit cell adhesion at 37 °C in a 5% CO2 humidified atmosphere. Following the removal of the culture medium, cells were incubated with 100 μL of their growth medium containing 50 and 100 μM TAT-PSscan255 for 4 h. TAT-PSscan255 was dissolved in water. The crystal violet assay was performed to assess cell viability. The amount of dye taken up was quantified with a plate reader (Multiskan Fc 10094, Thermo Fisher Scientific, Milan, Italy) at 595 nm. Data, reported as means ± SEM of three independent experiments carried out in quadruplicate, were presented as the percentage of proliferating cells compared to the control (vehicle-treated cells).

[2] = test system: normal human dermal fibroblasts (NHDFs); conditions: NHDF, 50 and 100 µM, 4 h, crystal violet; three experiments in quadruplicate
Procedure: as §1

Question: Which “EphA2 levels with respect to untreated control” value ([1]; PC-3, TAT-PSscan255 alone, 50 µM for 4 h) does the source give for `CC[C@H](C)[C@H](NC(=O)[C@H](CCCNC(=N)N)NC(=O)[C@H](CCCCN)NC(=O)[C@H](CC(N)=O)NC(=O)[C@H](C)NC(=O)[C@H](CC(C)C)NC(=O)[C@H](Cc1ccccc1)NC(=O)[C@H](CCCCN)NC(=O)[C@H](Cc1ccc(O)cc1)NC(=O)[C@H](Cc1c[nH]c2ccccc12)NC(=O)[C@H](CCC(=O)O)NC(=O)[C@H](CCCNC(=N)N)NC(=O)[C@H](CCCCN)NC(=O)CNC(=O)CNC(=O)[C@H](CCC(N)=O)NC(=O)[C@@H]1CCCN1C(=O)[C@@H]1CCCN1C(=O)[C@H](CCCNC(=N)N)NC(=O)[C@H](CCCNC(=N)N)NC(=O)[C@H](CCCNC(=N)N)NC(=O)[C@H](CCC(N)=O)NC(=O)[C@H](CCCNC(=N)N)NC(=O)[C@H](CCCNC(=N)N)NC(=O)[C@H](CCCCN)NC(=O)[C@H](CCCCN)NC(=O)[C@H](CCCNC(=N)N)NC(=O)CNC(=O)CCNC(C)=O)C(=O)N[C@@H](C)C(=O)N[C@@H](Cc1ccc(O)cc1)C(N)=O` [TAT-PSscan255] (Ac-[βAla]GRKKRRQRRRPPQGGKREWYKFLANKRIAY-NH2) here?
Answer: The value was “a certain decrease in EphA2 levels”.

Question: What about the “EphA2 levels with respect to untreated control” value ([1]; PC-3, TAT-peptide 50 µM for 2 h, then ephrinA1-Fc 1 µg/mL added for an extra 2 h) of the same compound?
Answer: Its value is “a reduction in EphA2 levels like that observed for the ephrin ligand when used by itself”.

Question: What about the “Cytotoxicity towards PC-3 compared with NHDFs” value (PC-3 cells; 50 and 100 µM) of the same compound?
Answer: Its value is “increased cytotoxicity towards PC-3 with respect to NHDFs”.

Question: What about the “Cytotoxic effect (cell viability relative to untreated cells)” value (PC-3 cells; PC-3, 50 and 100 µM, three experiments in quadruplicate) of the same compound?
Answer: Its value is “increased cytotoxic effect as a function of concentration”.

Question: What about the “Cytotoxic effect (cell viability relative to untreated cells)” value [2] of the same compound?
Answer: The value was “increased cytotoxic effect as a function of concentration”.
